Entries after “also recorded” stand apart in the source; their conditions may differ.
Columns and labels:
[1] = system: influenza H3N2 strain IVR-165 (A/Victoria/361/2011); format: cell-based
MDCK cells = assay: Cell viability, VI-CELL trypan blue exclusion; format: cell-based
Procedure: Cell viability assays were performed using MDCK cells treated with 1 uM sulphonamide or DMSO control. Cell viability was monitored over time up to 60 hrs using a VI-CELL machine (Beckman Coulter)(cell viability measured based on trypan blue exclusion). The sulphonamide analog used herein is not a marketed drug, therefore toxicity was conducted to identify cell viability over the course of incubation at the highest tested concentration of 10 μM and 60 hours of contact. […] At least 91% viability is detected in cells treated with sulphonamide.

[2] = system: virus-infected host cell culture; format: cell-based, influenza; details: versus control without compound
[3] = system: B/Massachusetts/2/2012 (low-expressing); assay: ambr15 mini-bioreactor and shake flask comparison, B strain; format: cell-based, influenza B; details: CDM and DM134 media, shake flasks and 15 ml bioreactors
Procedure: The two lead compounds were further tested in the commercially available small-scale bioreactor system, ambr15™ (TAP Biosystems). The ambr15 system mimics the characteristics of classical bioreactors at microscale (10-15 ml), controlled by an automated workstation, which enables the rapid evaluation of multiple bioreactor cultures at microscale.
To test both lead compounds were tested side-by-side under controlled conditions, with two infection media formulations (DM134 and CDM) and two flu strains, A/Victoria/361/2011 (IVR-165) (high-expressing) and B/Massachusetts/2/2012 (low-expressing). The infection parameters used in the experiment were as follows: seeding density was 1.0×10^6 cells/ml or 2.5×10^6 cells/mL; pH was 7.1+/−0.02 (pH control by dual control with 0.05N NaOH and CO2 gas); DO was 50% (range 50-80%), controlled by O2 gas; agitation was 1000 rpm (local control); temperature was 34.0° C., locally monitored with bioreactor controller probe; vessel type was Spargeless, extended temperature vessels; and, aeration rate during run was 1 mL/min.
The quantification of HA was carried out by ELISA then was subsequently confirmed by HPLC. It was also shown that AFZ077 was able to boost HA yield in the DM134 medium with both low (1×10^6 per mL) and high (2.5×10^6 per mL) infection cell densities in this system. […] Overall, greater enhancement effect seen for low-expressing strains. […]

[4] = system: A/Victoria/361/2011 (IVR-165) (high-expressing); assay: ambr15 mini-bioreactor and shake flask comparison, A strain; format: cell-based, influenza A H3N2; details: CDM and DM134 media, shake flasks and 15 ml bioreactors; listed as AFZ077
A and B strains = format: cell-based, influenza; details: DM134 medium, 2.5×10^6 per mL
B/Massachusetts/02/2012 = assay: Ambr 250 mL bioreactor, B strain; format: cell-based, influenza B; details: any of the doses tested, ambr250
Procedure: FIG. 13 provides a graph showing HA yields in the B strain tested with BYF589 at concentrations as indicated.
FIG. 14 provides a graph showing HA yields in the B strain tested with AFZ077 at concentrations as indicated.
The results were confirmed using 3 different viruses (a high-, medium-, and poor-expressing strains). […] To confirm these findings in a larger-scale system, TD Ambr™ 250 mL bioreactors were employed. Both of the lead compounds (as well as DMSO alone as negative control, and, no compound/no DMSO as double-negative control) were tested with a high- and low-expressing strains to determine if the observed enhancement in the small-scale cultures can be reproduced in a larger-scale system. The following parameters were used: Spent DM134:Fresh PFM (1:3); Virus Strains were A/Victoria/361/2011 (IVR-165) and B/Massachusetts/02/2012; MOI was 10^−5 for A/Victoria IVR-165 and 10^−4 for B/Massachusetts; ICD: 2.0e6-3.0e6 cells/mL; N-1 Process: 1B (no Medium Exchange); and, Harvest Time was 65-72 hours post-infection. HA yields were measured by two methods: RP-HPLC and HA-ELISA. […] Note that the error bars represent one standard deviation from the mean, to illustrate variability of the HA-ELISA assay between assay repeats.

5HT7 receptor = target: T1, 5HT7 receptor (Canis lupus familiaris, UniProt A0A8I3S709); assay: Dependence of HA enhancement on 5HT7 receptor activity; format: cell-based; details: B/Mass in DM134 media, 65 hrs HA yield by ELISA
T1 construct: endogenous in cells; host or cells: MDCK 33016PF suspension cells (inferred)
T1 sequence (A0A8I3S709 entry or part of it): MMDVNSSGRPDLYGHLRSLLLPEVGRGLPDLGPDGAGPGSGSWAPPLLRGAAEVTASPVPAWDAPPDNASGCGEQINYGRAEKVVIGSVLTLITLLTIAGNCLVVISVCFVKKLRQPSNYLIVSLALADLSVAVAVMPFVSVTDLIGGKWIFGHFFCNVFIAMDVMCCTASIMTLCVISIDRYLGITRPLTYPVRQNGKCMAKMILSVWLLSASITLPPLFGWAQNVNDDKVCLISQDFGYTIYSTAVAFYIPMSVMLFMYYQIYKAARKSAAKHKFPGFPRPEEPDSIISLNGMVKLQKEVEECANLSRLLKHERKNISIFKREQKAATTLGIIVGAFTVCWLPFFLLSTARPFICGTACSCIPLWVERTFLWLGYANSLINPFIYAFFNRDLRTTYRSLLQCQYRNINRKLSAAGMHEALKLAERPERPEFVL
Description: FIG. 15 provides a graph showing that Flu HA yield enhancement by AFZ077 is dependent on decreasing activity of the 5HT7 receptor. Flu B strain (B/Mass) in DM134 media; 65 hrs HA yield by ELISA (μg/ml).
Studies based on Formula 8 (e.g., Compound E) were expanded to identify potential compounds that may share certain mechanisms of action, as summarized in Table 5 below.

[5] = 0 and 60 hr, mass spec
cellular cholesterol = assay: Total cellular cholesterol (Amplex Red); format: cell-based
Procedure: Possible effects of BYF589 as well as various enzyme inhibitors of the pathway on the cell viability and total cellular cholesterol levels were examined. Tested samples included DMSO, BYF589 (1 μM), MEV (100 μM), FTI (0.5 μM), ZA (1 μM) and GTI (0.5 μM).
Free cholesterol is oxidized by cholesterol oxidase to form a cholesterol ketone and H2O2, which then reacts with Amplex Red+HRP to produce the fluorescent product resorufin.

[6] = system: influenza in MDCK 33016PF cells; format: cell-based; details: MEV plus BYF
MDCK 33016PF cells = details: 24 hours; BYF589 1 μM, MEV 100 μM, FTI 0.5 μM, ZA 1 μM, GTI 0.5 μM
influenza H3N2 virus = details: MOI of 10^−3, 24 hours post infection; cited from earlier work
Subtype A/Texas X223A = format: cell-based, influenza A; details: 0.05 μM
Subtype AH3N2 = assay: SAR study of analogues, HA-ELISA; details: 0.05 μM, FIG. 7

Cc1cccc(S(=O)(=O)N2CCC[C@@H]2CCN2CCC(C)CC2)c1 [Compound E]
HA yield before the decrease (earlier addition) [1]: about 20 μg/ml | HA yield, compound added 6 hours post infection [1]: about 5 μg/ml | impact on cell viability (MDCK cells; monitored up to 60 hrs): Neither sulphonamide nor pitavastatin had a negative impact on cell viability | cell viability (MDCK cells; up to 10 μM and 60 hours of contact): At least 91% | increase in HA yield at 24 hours, compound added at T=2, 4 [2]: approximately 4 fold | increase in HA yield at 24 hours, compound added at T=6 [2]: no significant increase | increase in HA yield at 24 hours, compound added at time of infection (T=0) [2]: approximately 4 fold | HA yield enhancement, low-expressing B strain [3]: boosts HA yield | HA yield enhancement, high-expressing A strain [4]: much greater enhancement in HA yield; also recorded: Only AFZ077 enhanced yield | HA yield over original yields, high ICD format with AFZ treatment (A and B strains): ~4 fold | increase in HA yield over the controls (B/Massachusetts/02/2012): no significant increase in HA yield | HA enhancing effect in presence of serotonin (5HT) (5HT7 receptor): can be abrogated by adding serotonin (5HT) | loss of compound in media or media+MDCK cells [5]: No loss of compounds was observed

CC(O)(CCO)CC(=O)O (centres unmarked) [MEV, Mevalonate]
cellular cholesterol levels, in combination with BYF (cellular cholesterol; MEV plus BYF): does not replenish cellular cholesterol levels | cellular cholesterol levels, compound alone (cellular cholesterol; normalized to DMSO): no effect on cellular cholesterol levels | HA yield enhancement, in combination with BYF [6]: reduces HA yield enhancement | effect on cell viability (MDCK 33016PF cells): no negative effect on cell viability

COc1ccc(C2=N[C@@H](c3ccc(Cl)cc3)[C@@H](c3ccc(Cl)cc3)N2C(=O)N2CCNC(=O)C2)c(OC(C)C)c1 [Nutlin-3]
copies of viral genome in the supernatant compared with control (influenza H3N2 virus): up to nineteen times more copies of viral genome

CC(C)c1nc(N(C)S(C)(=O)=O)nc(-c2ccc(F)cc2)c1/C=C/[C@@H](O)C[C@@H](O)CC(=O)O [Rosuvastatin, bis[(E)-7-[4-(4-fluorophenyl)-6-isopropyl-2-[methyl(methylsulfonyl)amino]pyrimidin-5-yl](3R,5S)-3,5-dihydroxyhept-6-enoic acid]]
HA yield compared with other commercially available statins (Subtype A/Texas X223A): did not produce the yield potential of comparative statins

CC(C)n1c(/C=C/[C@@H](O)C[C@@H](O)CC(=O)O)c(-c2ccc(F)cc2)c2ccccc21 [fluvastatin, (3R, 5S, 6E)-7-[3-(4-fluorophenyl)-1-(propan-2-yl)-1H-indol-2-yl]-3,4-dihydroxyhept-6-enoic acid]
HA yield compared with pitavastatin (Subtype AH3N2): performed even better than pitavastatin

Source: patent publication US11897918B2, “Compositions and methods to increase production” (priority 2014, dated 2024)
